Measurements as given in PubChem BioAssay AID1963858 (Molecular Pharmacology Branch, DTP, NCI, 2024).
pIC50: −log10 of the molar value. Where “and” joins values, the source holds several entries; their conditions need not be identical. Equal entries are not always repeated.

Test system: HOP-62 multicell spheroids with HUVEC/MSC, viability
Test: Anticancer human tumor HOP-62 cell line growth inhibition [KRAS2];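 also: viability read after a week of compound exposure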;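 as to viability, T/C: 100% = DMSO vehicle-treated spheroids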
Details: for viability, T/C: stronger effect = lower value
How it was run: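 Combination screen of spheroid viability in tumor-cell co-cultures with endothelial (HUVEC) and mesenchymal stem cell stroma. Each agent was tested in half-log dilutions, topping at clinical Cmax or at 10 microM without a known Cmax.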

[1] = curve of first compound, second compound 0.1 µM
[2] = curve of first compound, second compound 0.316 µM
[3] = curve of first compound, second compound 1 µM
[4] = curve of first compound, second compound 3.16 µM
[5] = curve of first compound, second compound 10 µM
[6] = second compound 0.1 µM, first compound 0.0316 µM
[7] = second compound 0.1 µM, first compound 0.1 µM
[8] = second compound 0.1 µM, first compound 0.316 µM
[9] = second compound 0.1 µM, first compound 1 µM
[10] = second compound 0.1 µM, first compound 3.16 µM
[11] = second compound 0.1 µM, first compound 10 µM
[12] = second compound 0.316 µM, first compound 0.0316 µM
[13] = second compound 0.316 µM, first compound 0.1 µM
[14] = second compound 0.316 µM, first compound 0.316 µM
[15] = second compound 0.316 µM, first compound 1 µM
[16] = second compound 0.316 µM, first compound 3.16 µM
[17] = second compound 0.316 µM, first compound 10 µM
[18] = second compound 1 µM, first compound 0.0316 µM
[19] = second compound 1 µM, first compound 0.1 µM
[20] = second compound 1 µM, first compound 0.316 µM
[21] = second compound 1 µM, first compound 1 µM
[22] = second compound 1 µM, first compound 3.16 µM
[23] = second compound 1 µM, first compound 10 µM
[24] = second compound 3.16 µM, first compound 0.0316 µM
[25] = second compound 3.16 µM, first compound 0.1 µM
[26] = second compound 3.16 µM, first compound 0.316 µM
[27] = second compound 3.16 µM, first compound 1 µM
[28] = second compound 3.16 µM, first compound 3.16 µM
[29] = second compound 3.16 µM, first compound 10 µM
[30] = second compound 10 µM, first compound 0.0316 µM
[31] = second compound 10 µM, first compound 0.1 µM
[32] = second compound 10 µM, first compound 0.316 µM
[33] = second compound 10 µM, first compound 1 µM
[34] = second compound 10 µM, first compound 3.16 µM
[35] = second compound 10 µM, first compound 10 µM

CC(C)NCC(C(=O)N1CCN(c2ncnc3c2C(C)CC3O)CC1)c1ccc(Cl)cc1 (stereo unspecified) + C=CC(=O)N1CCN(c2nc(=O)n(-c3c(C)ccnc3C(C)C)c3nc(-c4c(O)cccc4F)c(F)cc23)C(C)C1
pIC50 [1]: 7.16
pIC50 [2]: 7.15
pIC50 [3]: 7.05
pIC50 [4]: 6.96
pIC50 [5]: > 7.50
viability, T/C [6]: 60.9%
viability, T/C [7]: 45.3%
viability, T/C [8]: 22.2%
viability, T/C [9]: 12.4%
viability, T/C [10]: 7.1%
viability, T/C [11]: 5.4%
viability, T/C [12]: 53.8%
viability, T/C [13]: 49.1%
viability, T/C [14]: 28.2%
viability, T/C [15]: 12.9%
viability, T/C [16]: 6.09%
viability, T/C [17]: 5.39%
viability, T/C [18]: 57.2%
viability, T/C [19]: 49.6%
viability, T/C [20]: 27.2%
viability, T/C [21]: 11.8%
viability, T/C [22]: 6.8%
viability, T/C [23]: 5.57%
viability, T/C [24]: 55.7%
viability, T/C [25]: 51%
viability, T/C [26]: 36.3%
viability, T/C [27]: 15.1%
viability, T/C [28]: 7.34%
viability, T/C [29]: 4.5%
viability, T/C [30]: 43.3%
viability, T/C [31]: 28.1%
viability, T/C [32]: 19.5%
viability, T/C [33]: 12.8%
viability, T/C [34]: 8.3%
viability, T/C [35]: 5.28%

COc1cc(Nc2ncc3c(n2)-c2ccc(Cl)cc2C(c2c(F)cccc2OC)=NC3)ccc1C(=O)O + CNCc1ccccc1-c1csc(C(C)Nc2nc(C)nc3cc(OC)c(OC)cc23)c1
pIC50 [1]: 6.56
pIC50 [2]: 6.84
pIC50 [3]: 7.40
pIC50 [4]: > 7.50
pIC50 [5]: > 7.50
viability, T/C [6]: 69.4%
viability, T/C [7]: 57.7%
viability, T/C [8]: 44.5%
viability, T/C [9]: 43.8%
viability, T/C [10]: 30.5%
viability, T/C [11]: 19.6%
viability, T/C [12]: 59.5%
viability, T/C [13]: 54.2%
viability, T/C [14]: 42.4%
viability, T/C [15]: 37%
viability, T/C [16]: 27.3%
viability, T/C [17]: 20.3%
viability, T/C [18]: 51.4%
viability, T/C [19]: 46.3%
viability, T/C [20]: 37.3%
viability, T/C [21]: 34.6%
viability, T/C [22]: 27.4%
viability, T/C [23]: 17.9%
viability, T/C [24]: 15.7%
viability, T/C [25]: 0.89%
viability, T/C [26]: 10.6%
viability, T/C [27]: 4.93%
viability, T/C [28]: 0.62%
viability, T/C [29]: 4.15%
viability, T/C [30]: 0.12%
viability, T/C [31]: 0.2%
viability, T/C [32]: 1.86%
viability, T/C [33]: 0.11%
viability, T/C [34]: 2.34%
viability, T/C [35]: 0.17%

COc1cc2nc(C)nc(NC(C)c3cc(N)cc(C(F)(F)F)c3)c2cc1OC1CCOC1 (stereo unspecified)
pIC50 (compound alone, run of 07/12/2021): < 5.00 and 5.01

CC(=O)Nc1cccc(-n2c(=O)n(C3CC3)c(=O)c3c(Nc4ccc(I)cc4F)n(C)c(=O)c(C)c32)c1 + CC1OCC2(CCN(c3cnc(Sc4ccnc(N)c4Cl)c(N)n3)CC2)C1N
pIC50 [1]: 8.67
pIC50 [2]: 9.06
pIC50 [3]: 9.78
pIC50 [4]: > 10.00
pIC50 [5]: > 10.00
viability, T/C (second compound 0.1 µM, first compound 0.0001 µM): 93.8%
viability, T/C (second compound 0.1 µM, first compound 0.000316 µM): 86.2%
viability, T/C (second compound 0.1 µM, first compound 0.001 µM): 67.9%
viability, T/C (second compound 0.1 µM, first compound 0.00316 µM): 41%
viability, T/C (second compound 0.1 µM, first compound 0.01 µM): 29.1%
viability, T/C [6]: 28.5%
viability, T/C (second compound 0.316 µM, first compound 0.0001 µM): 79.8%
viability, T/C (second compound 0.316 µM, first compound 0.000316 µM): 64.2%
viability, T/C (second compound 0.316 µM, first compound 0.001 µM): 49.8%
viability, T/C (second compound 0.316 µM, first compound 0.00316 µM): 33.8%
viability, T/C (second compound 0.316 µM, first compound 0.01 µM): 22.9%
viability, T/C [12]: 25.8%
viability, T/C (second compound 1 µM, first compound 0.0001 µM): 55.2%
viability, T/C (second compound 1 µM, first compound 0.000316 µM): 42.8%
viability, T/C (second compound 1 µM, first compound 0.001 µM): 33.5%
viability, T/C (second compound 1 µM, first compound 0.00316 µM): 21.5%
viability, T/C (second compound 1 µM, first compound 0.01 µM): 20.2%
viability, T/C [18]: 21.5%
viability, T/C (second compound 3.16 µM, first compound 0.0001 µM): 25.8%
viability, T/C (second compound 3.16 µM, first compound 0.000316 µM): 16.9%
viability, T/C (second compound 3.16 µM, first compound 0.001 µM): 14.4%
viability, T/C (second compound 3.16 µM, first compound 0.00316 µM): 17.7%
viability, T/C (second compound 3.16 µM, first compound 0.01 µM): 15.4%
viability, T/C [24]: 15.7%
viability, T/C (second compound 10 µM, first compound 0.0001 µM): 20.2%
viability, T/C (second compound 10 µM, first compound 0.000316 µM): 14.3%
viability, T/C (second compound 10 µM, first compound 0.001 µM): 15.3%
viability, T/C (second compound 10 µM, first compound 0.00316 µM): 14.2%
viability, T/C (second compound 10 µM, first compound 0.01 µM): 12.4%
viability, T/C [30]: 13.7%
